Experimental data from patent publication US20200277373A1, “ANTI-TREM2 ANTIBODIES AND METHODS OF USE THEREOF” (Denali Therapeutics Inc., priority 2017, published 2020).

Assays:
Format in all cases: cell-based
TREM2 = target: T1, TREM2 (Homo sapiens, UniProt Q9NZC2); test: Liposome stimulation pSyk AlphaLISA, HEK293 overexpressing TREM2 and DAP12; conditions: liposomes 30% lipid/70% PC (KLA 10%/90%), fold change over HBSS
T1 construct: expressed in transfected cells
Experimental: (§1) Lipids were purchased from Avanti Polar Lipids (Alabaster, Ala.) or Echelon Biosciences (Salt Lake City, Utah). Each screened lipid was resuspended in chloroform and added at 30 mole percent composition to 70 mole percent phosphatidylcholine (PC; 1,2-dioleoyl-sn-glycero-3-phosphocholine, Avanti Polar Lipids). Kdo2-Lipid A was added at a 10 mole percent composition with 90 mole percent PC. Lipid mixes were dried under nitrogen gas and resuspended in HBSS at a concentration of 4 mg/mL. Mixes were vortexed or briefly sonicated until resuspended, then bath sonicated for 1-5 minutes. Liposomes were used for 1-2 weeks. 3 independent batches of liposomes were used in experiments.
(§2) HEK293 cell lines overexpressing TREM2 and DAP12, mutant TREM2-R47H and DAP12, or DAP12 alone were plated in 96-well PDL-coated plates at a density of 40,000 cells per well and cultured for 36-48 hours until 90-100% confluent.
(§3) Cell culture medium was removed and cells were washed once with 200ul HBSS. Liposomes were diluted in HBSS in concentrations ranging from 0.03125 mg/mL to 2 mg/mL, then 50 μl was added to wells in 2-3 technical replicates per plate. Each plate contained HBSS negative control wells, 100% PC liposome control, 5 μg/mL agonist anti-TREM2 positive control (Abnova; Taiwan; # MAB2056), and 5 μg/mL mouse IgG3 isotype control (R&D Systems; Minneapolis, Minn.; # MAB007). Stimuli were incubated with cells for 5 minutes at 37° C., 5% CO2, liposomes were removed, and plates were frozen at −80° C.
(§4) Cells were lysed for 30 minutes to 1 hour on ice in 50 ul/well Cell Lysis Buffer (Cell Signaling Technology; Danvers, Mass.; #9803) with 1 mM PMSF. AlphaLISA SureFire Ultra p-Syk Tyr525/526 assay kit (PerkinElmer, ALSU-PSYK-A10OK) was used to measure pSyk levels in lysate as per manufacturer protocol. 10 μl lysate was added to 384-well OptiPlates (PerkinElmer; #6007290) and an EnVision Multilabel Plate Reader (PerkinElmer) was used to measure AlphaLISA fluorescence.
(§5) PSyk AlphaLISA fluorescence was converted to a log 2 scale. Fluorescence values from liposomes and controls were each subtracted from average fluorescence values from HBSS stimulated wells on the same plate (log 2(liposome)−log 2(HBSSave)=log 2(signal)). The result was converted back to a standard scale to measure fold change (2^log 2(signal)=fold change). Technical replicate fold changes values were averaged to obtain the fold change over background listed (pSyk FOB). Graphs represent values from independent experiments or individual human donors. Results from the screen on the HEK293 overexpressing cell lines are shown in Table 9 below and in FIG. 8A-8B. HEK293 results showing specificity for TREM2 over DAP12 expressed alone can be used to extrapolate which lipid species are likely acting as TREM2 ligands on human macrophages.

R47H TREM2 mutant = target: T2, R47H TREM2 mutant (Homo sapiens, UniProt Q9NZC2, R47H); test: Liposome stimulation pSyk AlphaLISA, HEK293 overexpressing TREM2-R47H and DAP12; conditions: liposomes 30% lipid/70% PC (KLA 10%/90%), fold change over HBSS
T2 construct: expressed in transfected cells
Experimental: as §1, §2, §3, §4, §5

DAP12 alone = target: T3, DAP12 alone (Homo sapiens, UniProt O43914); test: Liposome stimulation pSyk AlphaLISA, HEK293 expressing DAP12 alone; conditions: liposomes 30% lipid/70% PC (KLA 10%/90%), fold change over HBSS
T3 construct: expressed in transfected cells
Experimental: as §1, §2, §3, §4, §5

[1] = tested on: primary human macrophages; test: Liposome stimulation pSyk AlphaLISA, primary human macrophages; conditions: liposomes 30% lipid/70% PC (KLA 10%/90%)
Experimental: as §1
10 mL human blood was obtained from Blood Centers of the Pacific. Monocytes were extracted using RosetteSep Human Monocyte Enrichment Cocktail ([…] Technologies Inc.; Vancouver, BC; #15068) as per manufacturer protocols. Density gradient was performed with Ficoll-Paque Premium (GE Healthcare Life Sciences; Pittsburgh, Pa.; #17-5442-02). Isolated monocytes were resuspended at ˜1-1.3 million cells/mL and cultured for 5-6 days in RPMI, 10% Hyclone Fetal Bovine Serum, and penicillin/streptomycin supplemented with 50 ng/mL human M-CSF (Gibco, # PHC9501) in T175 tissue culture treated flasks. M-CSF was replenished every 2-3 days. Cells were washed once with PBS, 15 mL fresh medium was added, and cells were harvested by scraping. Cells were cultured overnight at a density of 100,000 cells per well on tissue culture treated 96-well plates supplemented with 10-25 ng/mL M-CSF.
as §3, §4, §5

T3 sequence (O43914 22-113): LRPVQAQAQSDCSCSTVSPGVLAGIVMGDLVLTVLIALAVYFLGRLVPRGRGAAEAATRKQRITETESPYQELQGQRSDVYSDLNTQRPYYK
T1 sequence (Q9NZC2 19-230): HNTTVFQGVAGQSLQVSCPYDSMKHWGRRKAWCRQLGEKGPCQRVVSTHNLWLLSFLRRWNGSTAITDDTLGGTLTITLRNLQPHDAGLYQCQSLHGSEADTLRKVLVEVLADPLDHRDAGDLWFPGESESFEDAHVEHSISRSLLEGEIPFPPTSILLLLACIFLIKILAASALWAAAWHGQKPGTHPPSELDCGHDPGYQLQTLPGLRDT
T1 sequence (O43914 22-113 partner): as the sequence (O43914 22-113) above
T2 sequence (Q9NZC2 19-230 R47H): as the sequence (Q9NZC2 19-230) above, with R29H counted along it
T2 sequence (O43914 22-113 partner): as the sequence (O43914 22-113) above

Row | Compound | Human TREM2 (pSyk FOB) (TREM2) [FOB] | R47H TREM2 mutant (pSyk FOB) (R47H TREM2 mutant) [FOB] | DAP12 alone (pSyk FOB) (DAP12 alone) [FOB] | pSyk FOB [1] [FOB]
1 | CCCCCCCCCCCCC/C=C/[C@@H](O)[C@@H](N)CO[C@@H]1O[C@H](CO)[C@H](O)[C@H](O)[C@H]1O [Galactosylsphingosine (GalSo), Galactosylsphingosine] | 1.09 | 1.07 | 0.71 | –
2 | Phosphatidic acid [Phosphatidic acid (PA)] | 2.17 | 2.72 | 1.48 | 2.17
3 | CCCCCCCC(=O)OC[C@H](COP(=O)(O)OP(=O)(O)O)OC(=O)CCCCCCC [Diacylglycerol pyrophosphate (DGPP), Diacylglycerol pyrophosphate] | 3.42 | 3.70 | 1.16 | 1.61
4 | Phosphatidylglycerol [Phosphatidylglycerol (PG) or DSPG] | 2.25 | 3.77 | 1.40 | 1.85
5 | Lysophosphatidic acid [Lysophosphatidic acid (LPA)] | 3.69 | 3.62 | 1.17 | 1.82
6 | CCCCCCCCCCCCCCCCCCCCCCCCCC(=O)N[C@@H](CO[C@H]1O[C@H](CO)[C@H](O)[C@H](O)[C@H]1O)[C@H](O)[C@H](O)CCCCCCCCCCCCCC [α-galactosylceramide (KRN7000), α-galactosylceramide] | 0.79 | 0.97 | 0.85 | –
7 | N-Acyl-Serine [N-Acyl-Serine (NSer)] | 2.59 | 3.76 | 1.39 | 1.66
8 | CCCCCCCCCCCCC/C=C/[C@@H](O)[C@@H](N)COP(=O)([O-])OCC[N+](C)(C)C [Lysosphingomyelin (LSM), Lysosphingomyelin] | 0.67 | 0.85 | 1.03 | 1.26
9 | alkylacylglycerophosphocholine [alkylacylglycerophosphocholine (PAF)] | 1.58 | 1.41 | 0.69 | –
10 | Palmitic-acid-9-hydroxy-stearic-acid | 5.87 | 7.31 | 1.27 | 3.94
11 | Phosphatidylethanol [Phosphatidylethanol (PEtOH)] | 3.00 | 4.83 | 1.57 | 1.61
12 | CCCCCCCCCCCCCCC[C@@H](O)[C@@H](N)COP(=O)(O)O [Sphinganine-1-phosphate (SalP), Sphinganine-1-phosphate] | 3.31 | 5.32 | 1.34 | 1.08
13 | CC(C)CCC[C@@H](C)[C@H]1CC[C@H]2[C@@H]3C(=O)C=C4C[C@@H](O)CC[C@]4(C)[C@H]3CC[C@]12C [7-ketocholesterol (7-KC), 7-ketocholesterol] | 1.10 | 3.42 | 1.36 | 1.18
14 | N-Acyl-phosphatidylethanolamine [N-Acyl-phosphatidylethanolamine (NAPE)] | 0.67 | 0.94 | 0.78 | –
15 | CCCCCCCCCCCCCC(=O)O[C@H](CCCCCCCCCCC)CC(=O)O[C@@H]1[C@@H](NC(=O)C[C@@H](CCCCCCCCCCC)OC(=O)CCCCCCCCCCC)[C@H](OC[C@H]2O[C@H](OP(=O)(O)O)[C@H](NC(=O)C[C@H](O)CCCCCCCCCCC)[C@@H](OC(=O)C[C@H](O)CCCCCCCCCCC)[C@@H]2O)O[C@H](CO[C@]2(C(=O)O)C[C@@H](O[C@]3(C(=O)O)C[C@@H](O)[C@@H](O)[C@@H]([C@H](O)CO)O3)[C@@H](O)[C@@H]([C@H](O)CO)O2)[C@H]1OP(=O)(O)O [Kdo2-Lipid A (KLA), Kdo2-Lipid A] | 5.15 | 6.65 | 1.25 | 2.73
16 | Acyl Carnitine [Acyl Carnitine (AC)] | 1.17 | 1.83 | 1.55 | –
17 | Diacylglycerol 34:1 [Diacylglycerol 34:1 (DG34:1)] | 1.20 | 0.68 | 0.68 | –
18 | Diacylglycerol 38:4 [Diacylglycerol 38:4 (DG 38:4)] | 1.05 | 0.73 | 0.64 | –
19 | Glucosylceramide [Glucosylceramide (GlcCer)] | – | – | – | 1.58
20 | Dihyrdoceramide [Dihyrdoceramide (DhCer)] | 1.22 | 1.47 | 0.84 | –
21 | CCCCCCCCCCCCCCC[C@@H](O)[C@@H](N)CO [Sphinganine] | 0.76 | 1.39 | 1.26 | –
22 | lysoalkylacylglycerophosphocholine | 1.81 | 1.46 | 0.67 | –
23 | CCCCCCCCCCCCCCCC(=O)OC[C@H](COP(=O)([O-])OCC[N+](C)(C)C)OC(=O)CCCC=O [1-palmitoyl-2-(5′-oxo-valeroyl)-sn-glycero-3-phosphocholine] | 0.86 | 1.57 | 1.34 | –
24 | Lysophosphatidylcholine [Lysophosphatidylcholine (LPC)] | 1.26 | 1.47 | 1.14 | –
